According to US10513519B2, “Solid forms of (1S,4S)-4-(2-(((3S,4R)-3-fluorotetrahydro-2H-pyran-4-yl)amino)-8-((2,4,6-trichlorophenyl)amino)-9H-purin-9-yl)-1-methylcyclohexane-1-carboxamide and methods of their use” (Signal Pharmaceuticals, LLC, priority 2016, dated 2019):

Tested on: cancer cell lines
Experiment: Multiplexed cytotoxicity assay: cell proliferation (relative cell count IC50, GI50)
Assay type: cell-based
Description: (§1) Cells are grown in RPMI1640, 10% FBS, 2 mM L-alanyl-L-Glutamine, 1 mM Na pyruvate or a special medium in a humidified atmosphere of 5% CO2 at 37° C. Cells are seeded into 384-well plates and incubated in a humidified atmosphere of 5% CO2 at 37° C. Compounds are added 24 h post cell seeding. At the same time, a time zero untreated cell plate is generated. After a 72 hour incubation period, cells are fixed and stained with fluorescently labeled antibodies and nuclear dye to allow visualization of nuclei, apoptotic cells and mitotic cells. Apoptotic cells are detected using an anti-active caspase-3 antibody. Mitotic cells are detected using an anti phospho-histone-3 antibody. Compounds are serially diluted 3.16-fold and assayed over 10 concentrations in a final assay concentration of 0.1% DMSO from the highest test concentration of 10 μM. Automated fluorescence microscopy was carried out using a Molecular Devices ImageXpress Micro XL high-content imager, and images are collected with a 4× objective.
Sixteen-bit TIFF images are acquired and analyzed with MetaXpress 5.1.0.41 software. Cell proliferation is measured by the signal intensity of the incorporated nuclear dye. The cell proliferation assay output is referred to as the relative cell count. To determine the cell proliferation end point, the cell proliferation data output is transformed to percentage of control (POC) using the following formula: POC=relative cell count(compound wells)/relative cell count(vehicle wells)×100
GI50 is the concentration needed to reduce the observed growth by half. This is the concentration that inhibits the growth to the level midway between growth in untreated cells and the number of cells seeded in the well (Time zero value). The IC50 values are calculated using nonlinear regression to fit data to a sigmoidal 4 point, 4 parameter One-Site dose response model, where: y(fit)=A+[(B−A)/(1+((C/x)^D))].
as §1, with “In another experiment, cells were grown” for “Cells are grown”, “Cells were” for “Cells are”, “Compounds were” for “Compounds are”, “plate was” for “plate is”, “cells were” for “cells are”, “images were” for “images are”
Sixteen-bit TIFF images were acquired and analyzed with MetaXpress 5.1.0.41 software. Cell proliferation was measured by the signal intensity of the incorporated nuclear dye. The cell proliferation assay output was referred to as the relative cell count. To determine the cell proliferation end point, the cell proliferation data output was transformed to percentage of control (POC) using the following formula: POC=relative cell count(compound wells)/relative cell count(vehicle wells)×100
GI50 refers to the concentration needed to reduce the observed growth by half. This corresponds to the concentration that inhibits the growth to the level midway between growth in untreated cells and the number of cells seeded in the well (Time zero value). The IC50 values were calculated using nonlinear regression to fit data to a sigmoidal 4 point, 4 parameter One-Site dose response model, where: y(fit)=A+[(B−A)/(1+((C/x)^D))].

[1] = 72 h, G292CLONEA141B1, Soft Tissue, Osteosarcoma
[2] = 72 h, HOS, Soft Tissue, Osteosarcoma
[3] = 72 h, HS729, Soft Tissue, Sarcoma
[4] = 72 h, HS821T, Soft Tissue, Sarcoma
[5] = 72 h, HS888SK, Soft Tissue, Osteosarcoma
[6] = 72 h, IM9, Hematopoietic and lymphoid, Myeloma
[7] = 72 h, TE125T, Soft Tissue, Sarcoma
[8] = 72 h, U266B1, Hematopoietic and lymphoid, Myeloma
[9] = 72 h, VAESBJ, Soft Tissue, Sarcoma
[10] = BC1 (Hematopoietic and lymphoid, Lymphoma)
[11] = BCP-1, BCP1 (Hematopoietic and lymphoid, Lymphoma)
[12] = BM-1604, 72 h, BM1604, Prostate, 72 h
[13] = CEM/C1, CEMC1 (Hematopoietic and lymphoid, Leukemia)
[14] = CML-T1, CMLT1 (Hematopoietic and lymphoid, Leukemia)
[15] = D341 Med, D341MED (CNS, Medulloblastoma)
[16] = DB (Hematopoietic and lymphoid, Lymphoma)
[17] = EB2 (Hematopoietic and lymphoid, Lymphoma)
[18] = EB3 (Hematopoietic and lymphoid, Lymphoma)
[19] = EM2 (Hematopoietic and lymphoid, Leukemia)
[20] = H9 (Hematopoietic and lymphoid, Lymphoma)
[21] = HS611T (Hematopoietic and lymphoid, Lymphoma)
[22] = HT (Hematopoietic and lymphoid, Lymphoma)
[23] = HUH-6-clone5, HUH6CLONE5 (Liver)
[24] = Homo sapiens, 22Rv1, 72 h, 22RV1, Prostate, 72 h
[25] = Homo sapiens, 639-V, 639V (Bladder)
[26] = Homo sapiens, 647-V, 647V (Bladder)
[27] = Homo sapiens, 769-P, 769P (Kidney)
[28] = Homo sapiens, 786-0, 786O (Kidney)
[29] = Homo sapiens, A101D, A101D (Skin, Melanoma)
[30] = Homo sapiens, A 172, A172 (CNS, Glioma)
[31] = Homo sapiens, A204, 72 h, A204, Soft Tissue, Sarcoma, 72 h
[32] = Homo sapiens, A253, A253 (Head and Neck)
[33] = Homo sapiens, A498, A498 (Kidney)
[34] = Homo sapiens, A549, 72 h, A549, Lung, NSCLC, 72 h
[35] = Homo sapiens, A673, 72 h, A673, Soft Tissue, Sarcoma, 72 h
[36] = Homo sapiens, A704, A704 (Kidney)
[37] = Homo sapiens, A2058, A2058 (Skin, Melanoma)
[38] = Homo sapiens, A-375, A375 (Skin, Melanoma)
[39] = Homo sapiens, A-427, 72 h, A427, Lung, NSCLC, 72 h
[40] = Homo sapiens, A-431, A431 (Skin, Carcinoma)
[41] = Homo sapiens, ACHN, ACHN (Kidney)
[42] = Homo sapiens, AN3-CA, 72 h, AN3CA, Female GU, Uterus
[43] = Homo sapiens, ARH-77, 72 h, ARH77, Hematopoietic and lymphoid, Myeloma, 72 h
[44] = Homo sapiens, ASPC1, 72 h, ASPC1, Pancreas, 72 h
[45] = Homo sapiens, AU565, AU565 (Breast)
[46] = Homo sapiens, BE(2)-C, 72 h, BE2C, CNS, Neuroblastoma
[47] = Homo sapiens, BFTC-905, BFTC905 (Bladder)
[48] = Homo sapiens, BHT-101, 72 h, BHT101, Endocrine, Thyroid, 72 h
[49] = Homo sapiens, BPH-1, 72 h, BPH1, Prostate, 72 h
[50] = Homo sapiens, BT-20, BT20 (Breast)

## C[C@]1(C(N)=O)CC[C@@H](n2c(Nc3c(Cl)cc(Cl)cc3Cl)nc3cnc(N[C@@H]4CCOC[C@H]4F)nc32)CC1 [Compound 1, cis-4-[2-{[(3S,4R)-3-fluorooxan-4-yl]amino}-8-(2,4,6-trichloroanilino)-9H-purin-9-yl]-1-methylcyclohexane-1-carboxamide]
5637 (Bladder)
  GI50: 6850 nM
  IC50: 9770 nM
72 h, AGS, Stomach
  GI50: 8.6 nM
  IC50: 9.8 nM
[1]
  GI50: 27.2 nM
  IC50: 49.3 nM
[2]
  GI50: 2570 nM
  IC50: 3690 nM
72 h, HS229T, Lung, NSCLC
  GI50: 415 nM
  IC50: > 10000 nM
[3]
  GI50: 540 nM
  IC50: > 10000 nM
[4]
  GI50: 169 nM
  IC50: > 10000 nM
[5]
  GI50: 111 nM
  IC50: > 10000 nM
[6]
  GI50: 91.1 nM
  IC50: 143 nM
72 h, JAR, Female GU, Placenta
  GI50: 3170 nM
  IC50: 3210 nM
72 h, KLE, Female GU, Uterus
  GI50: > 10000 nM
  IC50: > 10000 nM
72 h, PA1, Female GU, Ovary
  GI50: 471 nM
  IC50: 2620 nM
72 h, PC3, Prostate
  GI50: 7820 nM
  IC50: 8540 nM
72 h, RD, Soft Tissue, Sarcoma
  GI50: 36.7 nM
  IC50: 44.3 nM
72 h, SKPNDW, Stomach
  GI50: 3600 nM
  IC50: > 10000 nM
[7]
  GI50: 1090 nM
  IC50: > 10000 nM
72 h, TT, Endocrine, Thyroid
  GI50: 86.3 nM
  IC50: > 10000 nM
[8]
  GI50: 13.3 nM
  IC50: 109 nM
[9]
  GI50: 336 nM
  IC50: 580 nM
A7 (Skin, Melanoma)
  GI50: 1720 nM
  IC50: 7270 nM
A388 (Head and Neck)
  GI50: 422 nM
  IC50: 1120 nM
[10]
  GI50: > 10000 nM
  IC50: > 10000 nM
[11]
  GI50: 20.5 nM
  IC50: 79.7 nM
[12]
  GI50: 141 nM
  IC50: 401 nM
C4I (Female GU, Cervix)
  GI50: > 10000 nM
  IC50: > 10000 nM
C32 (Skin, Melanoma)
  GI50: 28.9 nM
  IC50: 111 nM
C32TG, C32TG (Skin, Melanoma)
  GI50: 40.8 nM
  IC50: 109 nM
[13]
  GI50: > 10000 nM
  IC50: > 10000 nM
[14]
  GI50: 149 nM
  IC50: > 10000 nM
[15]
  GI50: 10000 nM
  IC50: 21.9 nM
[16]
  GI50: 13.1 nM
  IC50: > 10000 nM
DKMG (CNS, Glioma)
  GI50: 20.7 nM
  IC50: 126 nM
[17]
  GI50: 389 nM
  IC50: 550 nM
[18]
  GI50: 1630 nM
  IC50: 2150 nM
[19]
  GI50: 48.1 nM
  IC50: 93.6 nM
H4 (CNS, Glioma)
  GI50: 758 nM
  IC50: 943 nM
[20]
  GI50: 23.2 nM
  IC50: 39 nM
HLE (Liver)
  GI50: 683 nM
  IC50: 1040 nM
HLF (Liver)
  GI50: 4760 nM
  IC50: 6470 nM
[21]
  GI50: 10.6 nM
  IC50: 12.3 nM
HS688AT (Skin, Melanoma)
  GI50: 82.2 nM
  IC50: > 10000 nM
HS852T (Skin, Melanoma)
  GI50: 56.4 nM
  IC50: 715 nM
HS895T (Skin, Melanoma)
  GI50: > 10000 nM
  IC50: > 10000 nM
HS934T (Skin, Melanoma)
  GI50: 5.2 nM
  IC50: > 10000 nM
HS936TC1 (Skin, Melanoma)
  GI50: 18.4 nM
  IC50: 25.8 nM
HT3 (Female GU, Cervix)
  GI50: 856 nM
  IC50: 3210 nM
[22]
  GI50: 8300 nM
  IC50: > 10000 nM
[23]
  GI50: 145 nM
  IC50: 354 nM
[24]
  GI50: 2660 nM
  IC50: 5580 nM
[25]
  GI50: 184 nM
  IC50: 206 nM
[26]
  GI50: 6930 nM
  IC50: 7820 nM
[27]
  GI50: 194 nM
  IC50: 255 nM
[28]
  GI50: 2040 nM
  IC50: 6920 nM
[29]
  GI50: 42.4 nM
  IC50: 81.5 nM
[30]
  GI50: 64.9 nM
  IC50: 139 nM
[31]
  GI50: > 10000 nM
  IC50: > 10000 nM
[32]
  GI50: 171 nM
  IC50: > 10000 nM
[33]
  GI50: 522 nM
  IC50: 808 nM
[34]
  GI50: 102 nM
  IC50: 128 nM
[35]
  GI50: 3750 nM
  IC50: 3870 nM
[36]
  GI50: > 10000 nM
  IC50: > 10000 nM
[37]
  GI50: 212 nM
  IC50: 288 nM
[38]
  GI50: 6.5 nM
  IC50: 7.2 nM
[39]
  GI50: 47.5 nM
  IC50: 76.3 nM
[40]
  GI50: 228 nM
  IC50: 311 nM
[41]
  GI50: 306 nM
  IC50: 550 nM
[42]
  GI50: 713 nM
  IC50: 7030 nM
[43]
  GI50: > 10000 nM
  IC50: > 10000 nM
[44]
  GI50: 30.8 nM
  IC50: > 10000 nM
[45]
  GI50: 8150 nM
  IC50: 8770 nM
[46]
  GI50: 146 nM
  IC50: 210 nM
[47]
  GI50: 51.5 nM
  IC50: 54.6 nM
[48]
  GI50: 37.6 nM
  IC50: 41.2 nM
[49]
  GI50: 57.8 nM
  IC50: 67.5 nM
[50]
  GI50: 8360 nM
  IC50: > 10000 nM
